{"source": "ChEMBL document CHEMBL1156700", "about": "“Metabolic stereoselectivity of cytochrome P450 3A4 towards deoxypodophyllotoxin: In silico predictions and experimental validation” (Eur J Med Chem, 2008)", "assay_type_in_all_cases": "ADME", "key": {"[1]": {"biological_target": "T1, Cytochrome P450 3A4 (Homo sapiens, UniProt P08684)", "T1 sequence (P08684 whole entry)": "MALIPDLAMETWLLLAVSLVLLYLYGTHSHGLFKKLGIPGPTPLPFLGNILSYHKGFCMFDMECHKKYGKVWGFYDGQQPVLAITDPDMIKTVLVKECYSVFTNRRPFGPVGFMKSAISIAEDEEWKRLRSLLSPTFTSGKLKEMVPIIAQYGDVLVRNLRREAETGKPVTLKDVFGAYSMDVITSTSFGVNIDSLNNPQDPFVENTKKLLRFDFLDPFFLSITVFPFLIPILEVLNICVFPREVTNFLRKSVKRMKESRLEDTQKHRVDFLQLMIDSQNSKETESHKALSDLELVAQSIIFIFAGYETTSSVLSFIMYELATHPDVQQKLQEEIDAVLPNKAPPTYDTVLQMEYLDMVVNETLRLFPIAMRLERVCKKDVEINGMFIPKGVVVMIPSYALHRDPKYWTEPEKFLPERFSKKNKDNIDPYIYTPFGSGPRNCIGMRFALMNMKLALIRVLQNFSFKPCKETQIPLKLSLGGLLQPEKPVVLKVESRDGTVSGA", "test": "Activity of human recombinant CYP3A4 co-expressed in Escherichia coli with human p450 NADPH reductase assessed as conversion of deoxypodophyllotoxin to epipodophyllotoxin", "details": "recombinant enzyme"}, "[2]": {"biological_target": "T1, Cytochrome P450 3A4", "test": "Activity of human recombinant CYP3A4 assessed as conversion of testosterone to 6-beta-hydroxytestesterone at 25 uM after 60 mins in presence of 25 uM Miconazole", "details": "recombinant enzyme, 1 h"}, "[3]": {"biological_target": "T1, Cytochrome P450 3A4", "test": "Ratio of Vmax to Km for human recombinant CYP3A4", "details": "recombinant enzyme"}, "[4]": {"biological_target": "T1, Cytochrome P450 3A4", "test": "Activity of human recombinant CYP3A4 assessed as conversion of testosterone to 6-beta-hydroxytestesterone at 25 uM after 60 mins in presence of 25 uM epipodophyllotoxin", "details": "recombinant enzyme, 1 h"}}, "data": [{"smiles": "C[C@]12CC[C@H]3[C@@H](CCC4=CC(=O)CC[C@@]43C)[C@@H]1CC[C@@H]2O", "note": "[TESTOSTERONE]", "values": [{"measurement": "Km", "setting": "[1]", "result": 20.5, "unit": "µM"}, {"measurement": "Vmax", "setting": "[1]", "result": 30.3, "unit": "nmol/min"}, {"measurement": "inhibition (INH)", "setting": "[2]", "result": 4.38, "unit": "%"}, {"measurement": "Vmax/Km", "setting": "[3]", "result": "2.5e+06", "unit": "M⁻¹ s⁻¹"}, {"measurement": "inhibition (INH)", "setting": "[4]", "result": 11.46, "unit": "%"}]}]}
